Target: T1, FSHR (Homo sapiens, UniProt P23945)
T1 construct: expressed in transfected cells; host or cells: CHO (Cho-FSHR-LUC-1-1-43)
Assay: EC50 of cyclic AMP production in CHO FSHR cells + EC20 FSH (Assay A)
Format: cell-based
Settings: Table 1; for EC50: CHO FSHR cells + EC20 FSH, read-out: Assay A EC50 of cyclic AMP production; for activation at 5 µM: 1 h, effect relative to maximum response of the FSH standard
Summary of the method: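 cAMP HTRF ratio (665/620 nm) read after 1 h, 37 °C exposure of CHO-FSHR cells to compound in presence of EC20 FSH ([…]) and IBMX 200 μM. Responses given relative to FSH standard maximum; EC50 derived.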

T1 sequence (P23945 18-695): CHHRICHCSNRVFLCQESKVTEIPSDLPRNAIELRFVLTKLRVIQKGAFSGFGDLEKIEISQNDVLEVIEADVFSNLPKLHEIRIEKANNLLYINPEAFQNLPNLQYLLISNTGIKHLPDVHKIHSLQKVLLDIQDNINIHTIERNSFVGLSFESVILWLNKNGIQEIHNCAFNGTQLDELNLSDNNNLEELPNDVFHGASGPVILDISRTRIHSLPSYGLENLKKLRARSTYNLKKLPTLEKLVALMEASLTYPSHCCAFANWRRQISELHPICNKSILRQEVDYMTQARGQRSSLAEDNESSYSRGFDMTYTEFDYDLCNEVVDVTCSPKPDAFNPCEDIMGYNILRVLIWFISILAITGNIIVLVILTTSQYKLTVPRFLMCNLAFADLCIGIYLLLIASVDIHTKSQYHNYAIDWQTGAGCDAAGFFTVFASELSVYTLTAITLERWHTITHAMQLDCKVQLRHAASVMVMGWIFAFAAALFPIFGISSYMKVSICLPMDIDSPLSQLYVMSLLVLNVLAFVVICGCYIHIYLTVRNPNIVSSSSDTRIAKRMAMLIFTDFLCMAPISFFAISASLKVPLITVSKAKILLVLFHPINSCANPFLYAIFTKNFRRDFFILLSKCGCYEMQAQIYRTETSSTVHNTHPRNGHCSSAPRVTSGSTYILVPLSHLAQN
T1 sequence (P01215 25-116 partner): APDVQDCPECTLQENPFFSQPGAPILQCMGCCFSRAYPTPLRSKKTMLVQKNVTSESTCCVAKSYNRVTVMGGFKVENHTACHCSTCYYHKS
T1 sequence (P01225 19-129 partner): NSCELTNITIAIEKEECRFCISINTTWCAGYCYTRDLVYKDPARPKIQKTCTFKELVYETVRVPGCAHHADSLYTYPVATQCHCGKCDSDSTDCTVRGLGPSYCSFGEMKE

EC50 [µM]	activation at 5 µM [%]	Compound
1 to 10	–	Cc1ccc(C(=O)Nc2cc(C(=O)NCCN3CCS(=O)(=O)CC3)ccc2N2CCN(c3ccccc3C)CC2)o1 [Compound 174, 5-Methyl-furan-2-carboxylic acid [5-[2-(1,1-dioxo-1 lambda*6*-thiomorpholin-4-yl)ethylcarbamoyl]-2-(4-o-tolyl-piperazin-1-yl)-phenyl]-amide]
1 to 10	–	Cc1ccc(C(=O)Nc2cc(C(=O)NC3CCN(C(=O)OC(C)(C)C)CC3)ccc2N2CCN(c3ccccc3C)CC2)o1 [Compound 175, 4-[3-[(5-methyl-furan-2-carbonyl)-amino]-4-(4-o-tolyl-piperazin-1-yl)-benzoylamino]-piperidine-1-carboxylic acid tert-butyl ester]
1 to 10	–	Cc1ccccc1N1CCN(c2ccc(C(=O)NCCCN3CCCC3=O)cc2NC(=O)C(C)(C)C)CC1 [Compound 177, 3-(2,2-Dimethyl-propionylamino)-N-[3-(2-oxo-pyrrolidin-1-yl)-propyl]-4-(4-o-tolyl-piperazin-1-yl)-benzamide]
1 to 10	–	Cc1ccccc1N1CCN(c2ccc(C(=O)NCCCN3CCCC3=O)cc2NC(=O)c2nc(Br)cs2)CC1 [Compound 178]
0.1 to 1	–	Cc1ccccc1N1CCN(c2ccc(C(=O)NCCCN3CCCC3=O)cc2NC(=O)c2ncsc2C)CC1 [Compound 179]
1 to 10	–	Cc1ccccc1N1CCN(c2ccc(C(=O)NCCC(C)N3CCCC3)cc2NC(=O)c2ccco2)CC1 (stereo not shown) [Compound 181]
1 to 10	–	Cc1ccc(C(=O)Nc2cc(C(=O)NCCc3c[nH]cn3)ccc2N2CCN(c3ccccc3C)CC2)o1 [Compound 185, 5-Methyl-furan-2-carboxylic acid [5-[2-(1H-imidazol-4-yl)-ethylcarbamoyl]-2-(4-o-tolyl-piperazin-1-yl)-phenyl]-amide]
1 to 10	–	Cc1cccc(C(=O)Nc2cc(C(=O)NCCCN3CCCC3=O)ccc2N2CCN(c3ccccc3C)CC2)n1 [Compound 186, 6-Methyl-pyridine-2-carboxylic acid [5-[3-(2-oxo-pyrrolidin-1-yl)-propylcarbamoyl]-2-(4-o-tolyl-piperazin-1-yl)-phenyl]-amide]
0.1 to 1	–	Cc1ccccc1N1CCN(c2ccc(C(=O)N[C@H]3O[C@@H](CO)[C@@H]4OC(C)(C)O[C@@H]43)cc2NC(=O)c2ccco2)CC1 [Compound 191]
0.1 to 1	–	Cc1ccccc1N1CCN(c2ccc(C(=O)NCCCN)cc2NC(=O)c2ccco2)CC1 [Compound 192]
1 to 10	–	Cc1ccc(C(=O)Nc2cc(C(=O)NCCCN3CCCC3=O)ccc2N2CCCN(c3ccccc3C)CC2)o1 [Compound 194, 5-Methyl-furan-2-carboxylic acid [5-[3-(2-oxo-pyrrolidin-1-yl)-propylcarbamoyl]-2-(4-o-tolyl-[1,4]diazepan-1-yl)-phenyl]-amide]
1 to 10	–	Cc1ccc(C(=O)Nc2cc(C(=O)NC3CC3)ccc2N2CCN(c3ccccc3C)CC2)o1 [Compound 195, 5-Methyl-furan-2-carboxylic acid [5-cyclopropylcarbamoyl-2-(4-o-tolyl-piperazin-1-yl)-phenyl]amide]
–	22	Cc1ccc(C(=O)Nc2cc(C(=O)NCCCCCCNC(=O)OC(C)(C)C)ccc2N2CCN(c3ccccc3C)CC2)o1 [Compound 196]
1 to 10	–	Cc1ccccc1N1CCN(c2ccc(C(=O)NCCCN3CCCC3=O)cc2NC(=O)c2cnc(Cl)s2)CC1 [Compound 197]
0.1 to 1	–	Cc1ncc(C(=O)Nc2cc(C(=O)NCCCN3CCCC3=O)ccc2N2CCN(c3ccccc3C)CC2)s1 [Compound 198]
1 to 10	–	CCc1ncc(C(=O)Nc2cc(C(=O)NCCCN3CCCC3=O)ccc2N2CCN(c3ccccc3C)CC2)s1 [Compound 200]
> 10	–	Cc1ccccc1N1CCN(c2ccc(C(=O)NCCCN3CCCC3=O)cc2NC(=O)c2sc(Cl)nc2C)CC1 [Compound 201]
1 to 10	–	Cc1ccccc1N1CCN(c2ccc(C(=O)NCCCN3CCCC3=O)cc2NC(=O)c2nc3ccccc3s2)CC1 [Compound 202]
0.1 to 1	–	Cc1cnc(C(=O)Nc2cc(C(=O)NCCCN3CCCC3=O)ccc2N2CCN(c3ccccc3C)CC2)s1 [Compound 205]
1 to 10	–	Cc1ccccc1N1CCN(c2ccc(C(=O)NCCCN3CCCC3=O)cc2NC(=O)c2coc(C(C)C)n2)CC1 [Compound 208]
1 to 10	–	Cc1ccc(C(=O)Nc2cc(C(=O)NCCCn3ccnc3)ccc2N2CCN(c3ccccc3C)CC2)o1 [Compound 210, 5-Methyl-furan-2-carboxylic acid [5-(3-imidazol-1-yl-propylcarbamoyl)-2-(4-o-tolyl-piperazin-1-yl)-phenyl]-amide]
0.1 to 1	–	C=CC(=O)NCCCNC(=O)c1ccc(N2CCN(c3ccccc3C)CC2)c(NC(=O)c2ccco2)c1 [Compound 212]
> 10	–	Cc1ccccc1N1CCN(c2ccc(C(=O)NCCCN3CCCC3=O)cc2NC(=O)c2csc(C(C)C)c2)CC1 [Compound 213]
1 to 10	–	Cc1ccc(C(=O)Nc2cc(C(=O)NCCN3CCN(C(=O)OC(C)(C)C)CC3)ccc2N2CCN(c3ccccc3C)CC2)o1 [Compound 214]
> 10	–	Cc1ccccc1N1CCN(c2ccc(C(=O)NCCCN3CCCC3=O)cc2NC(=O)c2ccc(C(N)=O)o2)CC1 [Compound 216, Furan-2,5-dicarboxylic acid 2-amide 5-{[5-[3-(2-oxo-pyrrolidin-1-yl)-propylcarbamoyl]-2-(4-o-tolyl-piperazin-1-yl)-phenyl]-amide}]
0.1 to 1	–	Cc1ccc(C(=O)Nc2cc(C(=O)NCc3cccnc3)ccc2N2CCN(c3ccccc3C)CC2)o1 [Compound 218, 5-Methyl-furan-2-carboxylic acid [5-[(pyridin-3-ylmethyl)-carbamoyl]-2-(4-o-tolyl-piperazin-1-yl)-phenyl]-amide]

EC50 [µM]	activation at 5 µM [%]	Compound
1 to 10	–	Cc1ccccc1N1CCN(c2ccc(C(=O)NCCCN3CCCC3=O)cc2NC(=O)CC2CC2)CC1 [Compound 219, 3-(2-Cyclopropyl-acetylamino)-N-[3-(2-oxo-pyrrolidin-1-yl)-propyl]-4-(4-o-tolyl-piperazin-1-yl)-benzamide]
1 to 10	–	CCCc1cc(C(=O)Nc2cc(C(=O)NCCCN3CCCC3=O)ccc2N2CCN(c3ccccc3C)CC2)co1 [Compound 220]
0.1 to 1	–	COc1ccc(C(=O)Nc2cc(C(=O)NCCCN3CCCC3=O)ccc2N2CCN(c3ccccc3C)CC2)nc1 [Compound 221]
0.1 to 1	–	Cc1ccccc1N1CCN(c2ccc(C(=O)N[C@H]3O[C@@H](CO)[C@H](O)[C@@H]3O)cc2NC(=O)c2ccco2)CC1 [Compound 222]
0.1 to 1	–	C=CC(=O)NCCNC(=O)c1ccc(N2CCN(c3ccccc3C)CC2)c(NC(=O)c2ccco2)c1 [Compound 225]
–	41	Cc1ccccc1N1CCN(c2ccc(C(=O)NCCCN3CCCC3=O)cc2NS(=O)(=O)c2cccc3ncccc23)CC1 [Compound 229]
0.1 to 1	–	Cc1ccccc1N1CCN(c2ccc(C(=O)NCCC3C[C@H]4CC[C@@H]3C4)cc2NC(=O)c2coc(C3CC3)n2)CC1 (stereo partly shown) [Compound 231]
0.1 to 1	–	Cc1ccccc1N1CCN(c2ccc(C(=O)NCCCc3cn[nH]c3)cc2NC(=O)c2coc(C3CC3)n2)CC1 [Compound 232]
1 to 10	–	Cc1ccccc1N1CCN(c2ccc(C(=O)NCCC(=O)N3CCCC3)cc2NC(=O)c2coc(C3CC3)n2)CC1 [Compound 234]
1 to 10	–	Cc1ccccc1N1CCN(c2ccc(C(=O)NCc3ccc(Cl)cc3)cc2NC(=O)c2coc(C3CC3)n2)CC1 [Compound 235]
0.1 to 1	–	Cc1ccccc1N1CCN(c2ccc(C(=O)NCc3cccc(-c4c[nH]cn4)c3)cc2NC(=O)c2ccco2)CC1 [Compound 236]
0.1 to 1	–	Cc1ccccc1N1CCN(c2ccc(C(=O)NCc3cccc(-c4ccnn4C)c3)cc2NC(=O)c2ccco2)CC1 [Compound 237]
0.1 to 1	–	Cc1ccccc1N1CCN(c2ccc(C(=O)NCc3ccccc3C(N)=O)cc2NC(=O)c2ccco2)CC1 [Compound 238]
–	43	Cc1ccccc1N1CCN(c2ccc(C(=O)NCCCN3CCCC3=O)cc2NS(=O)(=O)Cc2cccc3cccnc23)CC1 [Compound 239]
0.1 to 1	–	Cc1ccccc1N1CCN(c2ccc(C(=O)NCc3cccc(-c4ccn(C)n4)c3)cc2NC(=O)c2ccco2)CC1 [Compound 240]
1 to 10	–	Cc1ccccc1N1CCN(c2ccc(C(=O)NCCCN3CCCC3=O)cc2Nc2ncccn2)CC1 [Compound 242, N-[3-(2-Oxo-pyrrolidin-1-yl)-propyl]-3-(pyrimidin-2-ylamino)-4-(4-o-tolyl-piperazin-1-yl)-benzamide]
1 to 10	–	Cc1cccc(N2CCN(c3ccc(C(=O)NCCCN4CCCC4=O)cc3NC(=O)c3ccc(C)o3)CC2)c1 [Compound 243]
–	12	Cc1ccc(N2CCN(c3ccc(C(=O)NCCCN4CCCC4=O)cc3NC(=O)c3coc(C4CC4)n3)CC2)cc1 [Compound 245]
< 0.1	–	Cc1ccccc1N1CCN(c2ccc(C(=O)NCc3ccc(C(N)=O)cc3)cc2NC(=O)c2ccco2)CC1 [Compound 247]
< 0.1	–	Cc1ccccc1N1CCN(c2ccc(C(=O)NCc3cccc(-c4nnn[nH]4)c3)cc2NC(=O)c2ccco2)CC1 [Compound 248]
–	14	Cc1ccc(N2CCN(c3ccc(C(=O)NCCCN4CCCC4=O)cc3NC(=O)c3coc(C4CC4)n3)CC2)cc1C [Compound 252]
–	24	Cc1ccc(C(=O)Nc2cc(C(=O)NCCCN3CCCC3=O)ccc2N2CCN(Cc3ccccc3C)[C@@H](C)C2)o1 [Compound 253]
–	20	Cc1ccc(C(=O)Nc2cc(C(=O)NCCCN3CCCC3=O)ccc2N2CCN(Cc3ccccc3C(F)(F)F)[C@@H](C)C2)o1 [Compound 254]
–	22	Cc1ccc(C(=O)Nc2cc(C(=O)NCCCN3CCCC3=O)ccc2N2CCN(Cc3ccccc3Cl)[C@@H](C)C2)o1 [Compound 255]
–	26	Cc1ccccc1CN1CCN(c2ccc(C(=O)NCCCN3CCCC3=O)cc2NC(=O)c2coc(C3CC3)n2)C[C@@H]1C [Compound 256]
–	21	C[C@H]1CN(c2ccc(C(=O)NCCCN3CCCC3=O)cc2NC(=O)c2coc(C3CC3)n2)CCN1Cc1ccccc1C(F)(F)F [Compound 257]

Reference: patent US9938262B2, “Benzamides” (Merck Patent GmbH, priority 2011, dated 2018)
